Source: PubChem BioAssay (NCI)
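These data come from cells grown in 96-well plates and exposed to compound for 48 hours at five concentrations. GI50 = concentration required for 50% inhibition of growth. Definition used: TGI = concentration required for complete inhibition of growth.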

Experiments:
Test in all cases: growth of human tumour cells (NCI), 48 h
786-0 renal = system: 786-0 renal
A498 renal = system: A498 renal
A549 NSCLC = system: A549 NSCLC
ACHN renal = system: ACHN renal
BT-549 breast = system: BT-549 breast
CAKI-1 renal = system: CAKI-1 renal
CCRF-CEM leukemia = system: CCRF-CEM leukemia
COLO 205 colon = system: COLO 205 colon
DU-145 prostate = system: DU-145 prostate
EKVX NSCLC = system: EKVX NSCLC
HCC-2998 colon = system: HCC-2998 colon
HCT-116 colon = system: HCT-116 colon
HCT-15 colon = system: HCT-15 colon
HL-60(TB) leukemia = system: HL-60(TB) leukemia
HOP-62 NSCLC = system: HOP-62 NSCLC
HOP-92 NSCLC = system: HOP-92 NSCLC
HS 578T breast = system: HS 578T breast
IGROV1 ovarian = system: IGROV1 ovarian
K-562 leukemia = system: K-562 leukemia
KM12 colon = system: KM12 colon
LOX IMVI melanoma = system: LOX IMVI melanoma
M14 melanoma = system: M14 melanoma
MALME-3M melanoma = system: MALME-3M melanoma
MCF7 breast = system: MCF7 breast
MDA-MB-231 breast = system: MDA-MB-231 breast
MDA-MB-435 = system: MDA-MB-435
MDA-MB-468 breast = system: MDA-MB-468 breast
MOLT-4 leukemia = system: MOLT-4 leukemia
NCI-H226 lung = system: NCI-H226 lung
NCI-H23 lung = system: NCI-H23 lung
NCI-H460 lung = system: NCI-H460 lung
NCI-H522 lung = system: NCI-H522 lung
OVCAR-3 ovarian = system: OVCAR-3 ovarian
OVCAR-4 ovarian = system: OVCAR-4 ovarian
OVCAR-5 ovarian = system: OVCAR-5 ovarian
OVCAR-8 ovarian = system: OVCAR-8 ovarian
PC-3 prostate = system: PC-3 prostate
RXF 393 renal = system: RXF 393 renal
SF-268 CNS = system: SF-268 CNS
SF-295 CNS = system: SF-295 CNS
SF-539 CNS = system: SF-539 CNS
SK-MEL-2 melanoma = system: SK-MEL-2 melanoma
SK-MEL-28 melanoma = system: SK-MEL-28 melanoma
SK-MEL-5 melanoma = system: SK-MEL-5 melanoma
SK-OV-3 ovarian = system: SK-OV-3 ovarian
SN12C renal = system: SN12C renal
SNB-19 CNS = system: SNB-19 CNS
SNB-75 CNS = system: SNB-75 CNS
SR leukemia = system: SR leukemia
SW-620 colon = system: SW-620 colon
TK-10 renal = system: TK-10 renal
U251 CNS = system: U251 CNS
UACC-257 melanoma = system: UACC-257 melanoma
UACC-62 melanoma = system: UACC-62 melanoma
UO-31 renal = system: UO-31 renal

## CC(C)(C)Nc1nc2cc(Cl)c(Cl)cc2nc1S(C)(=O)=O
786-0 renal
  GI50: 1.84 µM
  TGI: 3.47 µM
A498 renal
  GI50: 19.2 µM
  TGI: 33.5 µM
A549 NSCLC
  GI50: 13.5 µM
  TGI: 27.6 µM
ACHN renal
  GI50: 1.75 µM
  TGI: 3.35 µM
BT-549 breast
  GI50: 1.74 µM
  TGI: 3.41 µM
CAKI-1 renal
  GI50: 1.58 µM
  TGI: 3.01 µM
CCRF-CEM leukemia
  GI50: 0.307 µM
  TGI: 3.77 µM
COLO 205 colon
  GI50: 1.7 µM
  TGI: 3.28 µM
DU-145 prostate
  GI50: 3.46 µM
  TGI: 12.1 µM
EKVX NSCLC
  GI50: 13.3 µM
  TGI: 27 µM
HCC-2998 colon
  GI50: 8.7 µM
  TGI: 20.9 µM
HCT-116 colon
  GI50: 1.67 µM
  TGI: 3.44 µM
HCT-15 colon
  GI50: 1.53 µM
  TGI: 3.03 µM
HL-60(TB) leukemia
  GI50: 4.03 µM
  TGI: 20.1 µM
HOP-62 NSCLC
  GI50: 14.9 µM
  TGI: 29.2 µM
HOP-92 NSCLC
  GI50: 2 µM
  TGI: 4.88 µM
HS 578T breast
  GI50: 7.29 µM
  TGI: 35.2 µM
IGROV1 ovarian
  GI50: 12.2 µM
  TGI: 25.6 µM
K-562 leukemia
  GI50: 1.05 µM
  TGI: 3.21 µM
KM12 colon
  GI50: 7.82 µM
  TGI: 24.7 µM
LOX IMVI melanoma
  GI50: 1.35 µM
  TGI: 2.72 µM
M14 melanoma
  GI50: 1.71 µM
  TGI: 3.43 µM
MALME-3M melanoma
  GI50: 1.64 µM
  TGI: 3.09 µM
MCF7 breast
  GI50: 1.9 µM
  TGI: 4.23 µM
MDA-MB-231 breast
  GI50: 3.11 µM
  TGI: 8.94 µM
MDA-MB-435
  GI50: 1.88 µM
  TGI: 4.17 µM
MDA-MB-468 breast
  GI50: 1.64 µM
  TGI: 3.13 µM
MOLT-4 leukemia
  GI50: 0.411 µM
  TGI: 1.97 µM
NCI-H226 lung
  GI50: 11.4 µM
  TGI: 41.7 µM
NCI-H23 lung
  GI50: 2.09 µM
  TGI: 5.07 µM
NCI-H460 lung
  GI50: 8.46 µM
  TGI: 22.8 µM
NCI-H522 lung
  GI50: 1.2 µM
  TGI: 2.63 µM
OVCAR-3 ovarian
  GI50: 1.89 µM
  TGI: 3.52 µM
OVCAR-4 ovarian
  GI50: 2.96 µM
  TGI: 9.57 µM
OVCAR-5 ovarian
  GI50: 14.6 µM
  TGI: 28.4 µM
OVCAR-8 ovarian
  GI50: 3.95 µM
  TGI: 19.6 µM
PC-3 prostate
  GI50: 8.63 µM
  TGI: 24.6 µM
RXF 393 renal
  GI50: 1.77 µM
  TGI: 3.64 µM
SF-268 CNS
  GI50: 15.9 µM
  TGI: 36.4 µM
SF-295 CNS
  GI50: 14.6 µM
  TGI: 28.1 µM
SF-539 CNS
  GI50: 6.38 µM
  TGI: 19.3 µM
SK-MEL-2 melanoma
  GI50: 4.14 µM
  TGI: 16.1 µM
SK-MEL-28 melanoma
  GI50: 1.79 µM
  TGI: 3.33 µM
SK-MEL-5 melanoma
  GI50: 2.18 µM
  TGI: 5.77 µM
SK-OV-3 ovarian
  GI50: 13.3 µM
  TGI: 26.4 µM
SN12C renal
  GI50: 3.74 µM
  TGI: 14.4 µM
SNB-19 CNS
  GI50: 13.8 µM
  TGI: 26.9 µM
SNB-75 CNS
  GI50: 8.16 µM
  TGI: 24.4 µM
SR leukemia
  GI50: 0.504 µM
  TGI: 2.74 µM
SW-620 colon
  GI50: 1.48 µM
  TGI: 2.96 µM
TK-10 renal
  GI50: 1.7 µM
  TGI: 3.19 µM
U251 CNS
  GI50: 11.1 µM
  TGI: 24.5 µM
UACC-257 melanoma
  GI50: 1.99 µM
  TGI: 4.28 µM
UACC-62 melanoma
  GI50: 6.98 µM
  TGI: 19.8 µM
UO-31 renal
  GI50: 1.58 µM
  TGI: 2.95 µM
